Source: patent publication US7038084B2, “Succinoylamino hydroxyethylamino sulfonamides useful as retroviral protease inhibitors” (G.D. Searle & Co., priority 1992, dated 2006)
Read-outs that look alike come from different tables or passages of the source.

How the values were obtained:
HIV protease = target: T1, HIV protease (Human immunodeficiency virus type 1 group M subtype B, UniProt P04585); experiment: HIV protease enzyme assay (fluorogenic substrate 2-aminobenzoyl-Ile-Nle-Phe(p-NO2)-Gln-ArgNH2); assay type: biochemical
T1 construct: HIV protease is diluted in the assay buffer to a final enzyme concentration of 12.3 nanomolar, based on a molecular weight of 10,780
Description: The compounds of the present invention are effective HIV protease inhibitors. Utilizing an enzyme assay as described below, the compounds set forth in the examples herein disclosed inhibited the HIV enzyme. The preferred compounds of the present invention and their calculated IC50 (inhibiting concentration 50%, i.e., the concentration at which the inhibitor compound reduces enzyme activity by 50%) values are shown in Table 8. The enzyme method is described below. The substrate is 2-aminobenzoyl-Ile-Nle-Phe(p-NO2)-Gln-ArgNH2. The positive control is MVT-101 (Miller, M. et al, Science, 246, 1149 (1989)] The assay conditions are as follows:
The above described substrate is dissolved in DMSO, then diluted 10 fold in assay buffer. Final substrate concentration in the assay is 80 μM.
HIV protease is diluted in the assay buffer to a final enzyme concentration of 12.3 nanomolar, based on a molecular weight of 10,780.
The final concentration of DMSO is 14% and the final concentration of glycerol is 18%. The test compound is dissolved in DMSO and diluted in DMSO to 10× the test concentration; 10 μl of the enzyme preparation is added, the materials mixed and then the mixture is incubated at ambient temperature for 15 minutes. The enzyme reaction is initiated by the addition of 40 μl of substrate. The increase in fluorescence is monitored at 4 time points (0, 8, 16 and 24 minutes) at ambient temperature. Each assay is carried out in duplicate wells.

HIV-1 = experiment: HIV inhibition assay of acutely infected CEM cells (MTT); assay type: cell-based
Experimental: (§1) The HIV inhibition assay method of acutely infected cells is an automated tetrazolium based calorimetric assay essentially that reported by Pauses et al, J. Virol. Methods 20, 309–321 (1988). Assays were performed in 96-well tissue culture plates. CEM cells, a CD4^+ cell line, were grown in RPMI-1640 medium (Gibco) supplemented with a 10% fetal calf serum and were then treated with polybrene (2 μg/ml). An 80 μl volume of medium containing 1×10^4 cells was dispensed into each well of the tissue culture plate. To each well was added a 100 μl volume of test compound dissolved in tissue culture medium (or medium without test compound as a is control) to achieve the desired final concentration and the cells were incubated at 37° C. for 1 hour. A frozen culture of HIV-1 was diluted in culture medium to a concentration of 5×10^4 TCID50 per ml (TCID50=the dose of virus that infects 50% of cells in tissue culture), and a 20 μL volume of the virus sample (containing 1000 TCID50 of virus) was added to wells containing test compound and to wells containing only medium (infected control cells). Several wells received culture medium without virus (uninfected control cells). Likewise, the intrinsic toxicity of the test compound was determined by adding medium without virus to several wells containing test compound. In summary, the tissue culture plates contained the following experiments:
(§2) In experiments 2 and 4 the final concentrations of test compounds were 1, 10, 100 and 500 μg/ml. Either azidothymidine (AZT) or dideoxyinosine (ddI) was included as a positive drug control. […] DMSO was added to all control wells at an appropriate concentration.
(§3) Following the addition of virus, cells were incubated at 37° C. in a humidified, 5% CO2 atmosphere for 7 days. Test compounds could be added on days 0, 2 and 5 if desired. On day 7, post-infection, the cells in each is well were resuspended and a 100 μl sample of each cell suspension was removed for assay. A 20 μL volume of a 5 mg/ml solution of 3-(4,5-dimethylthiazol-2-yl)-2,5-diphenyltetrazolium bromide (MTT) was added to each 100 μL cell suspension, and the cells were incubated for 4 hours at […] in a 5% CO2 environment.
(§4) To each sample was added 100 μl of 10% sodium dodecylsulfate in 0.01 N HCl to lyse the cells, and samples were incubated overnight. The absorbance at 590 nm was determined for each sample using a Molecular Devices microplate reader. Absorbance values for each set of wells is compared to assess viral control infection, uninfected control cell response as well as test compound by cytotoxicity and antiviral efficacy.

CEM cells = experiment: Intrinsic toxicity of test compound in uninfected CEM cells (MTT); assay type: cell-based; conditions: 7 days
Experimental: as §1, §2, §3, §4

[1] = Table 8, 80 μM substrate, 12.3 nanomolar enzyme, pH 6.4, read-out: IC50
[2] = Human immunodeficiency virus 1, CCRF-CEM, 168 h

| Compound | IC50 (HIV protease; [1]) [nM] | EC50 (HIV-1; [2]) [nM] | other results |
| --- | --- | --- | --- |
| CC(C)CCN(C[C@@H](O)[C@H](Cc1ccccc1)NC(=O)[C@H](C)C(C)(C)C(=O)OCc1ccccc1)S(=O)(=O)c1ccccc1 (relative stereo) [Entry 1] | 80 | – | – |
| CC(C)CCN(C[C@@H](O)[C@H](Cc1ccccc1)NC(=O)[C@H](C)C(C)(C)C(=O)O)S(=O)(=O)c1ccccc1 (single isomer, unassigned) [Entry 1] | – | 15 | – |
| CC(C)CCN(C[C@@H](O)[C@H](Cc1ccccc1)NC(=O)[C@H](C)C(C)(C)C(=O)O)S(=O)(=O)c1ccccc1 (single isomer, unassigned) [Entry 2] | 2 | – | – |
| CC(C)CCN(C[C@@H](O)[C@H](Cc1ccccc1)NC(=O)[C@H](C)C(C)(C)C(N)=O)S(=O)(=O)c1ccccc1 (single isomer, unassigned) [Entry 2] | – | 9 | TD50 (CEM cells; human): 60,000 nm |
| CC(C)CCN(C[C@@H](O)[C@H](Cc1ccccc1)NC(=O)[C@H](C)C(C)(C)C(N)=O)S(=O)(=O)c1ccccc1 (single isomer, unassigned) [Entry 3] | 2 | – | – |
| CC(C)CN(C[C@@H](O)[C@H](Cc1ccccc1)NC(=O)[C@H](C)C(C)(C)C(=O)O)S(=O)(=O)c1ccccc1 [Entry 3] | – | 42 | IC50 (HIV protease; Table 9, enzyme assay): 1 nM; TD50 (CEM cells; human): 220,000 nm |
| CC(C)CN(C[C@@H](O)[C@H](Cc1ccccc1)NC(=O)[C@H](C)C(C)(C)C(=O)OCc1ccccc1)S(=O)(=O)c1ccccc1 [Entry 4] | 34 | – | – |
| CC(C)CN(C[C@@H](O)[C@H](Cc1ccccc1)NC(=O)[C@H](C)C(C)(C)C(N)=O)S(=O)(=O)c1ccccc1 [Entry 4] | – | 5 | TD50 (CEM cells; human): 62,000 nm |
| CC(C)CN(C[C@@H](O)[C@H](Cc1ccccc1)NC(=O)[C@H](C)C(C)(C)C(=O)O)S(=O)(=O)c1ccccc1 [Entry 5] | 1 | – | – |
| COc1ccc(S(=O)(=O)N(CC(C)C)C[C@@H](O)[C@H](Cc2ccccc2)NC(=O)[C@H](C)C(C)(C)C(=O)O)cc1 [Entry 5] | – | 27 | TD50 (CEM cells; human): 200,000 nm |
| COc1ccc(S(=O)(=O)N(CC(C)C)C[C@@H](O)[C@H](Cc2ccccc2)NC(=O)[C@H](C)C(C)(C)C(=O)OCc2ccccc2)cc1 [Entry 7] | 16 | – | – |
| COc1ccc(S(=O)(=O)N(CC(C)C)C[C@@H](O)[C@H](Cc2ccccc2)NC(=O)[C@H](C)C(C)(C)C(=O)O)cc1 [Entry 8] | 2 | – | – |
| COc1ccc(S(=O)(=O)N(CC(C)C)C[C@@H](O)[C@H](Cc2ccccc2)NC(=O)[C@H](C)C(C)(C)C(N)=O)cc1 [Entry 9] | 2 | – | – |
| Butanediamide, N^4-[2-hydroxy-3-[(3-methylbutyl)(phenylsulfonyl)amino]-1-(phenylmethyl)propyl]-2,2,3-Trimethyl-, [1S-[1R*(S*),2S*]]- [Table 8 Entry 3] | 2 | – | IC50 (HIV protease; Table 9, enzyme assay, read-out: IC50): 2 nM; EC50 (HIV-1; Table 9, CEM cells acutely infected with HIV-1, 7 days, read-out: EC50): 5 nM; TD50 (CEM cells; Table 9, CEM cells without virus): 58,000 nm |
